This note sets out measurements from patent US6599924B1, “2-hetaryl-3,4-dihydro-2H-pyrrole derivatives” (Bayer Aktiengesellschaft, priority 1998, dated 2003).

Assay in one data set: not given
Conditions: not given
One may read the melting point as the temperature, or range, at which the solid turns liquid. Consider `Oc1ccc(C2CCC(c3sccc3Cl)=N2)cc1` (stereo not shown) [Example I-706, 2-(5-(4-Hydroxyphenyl)-Δ^2-pyrrolin-2-yl)-3-chlorothiophene], for which the melting point is 146 °C.

On to `CC(C)(C)c1ccc(COc2ccc(C3CCC(c4sccc4Cl)=N3)cc2)cc1` (stereo not shown) [Example I-718, 3-Chloro-2-[5-(4-(4-tert-butylbenzyloxy)-phenyl)-Δ^2-pyrrolin-2-yl]-thiophene], for which the melting point is 102 °C.

The nature of a further data set: log P determination.
Conditions: not given
A word on the logP: it is a log measure of how a compound divides between an organic and an aqueous phase. Read a low logP as lower lipophilicity. `C=CCOc1ccc(C2CCC(c3sccc3Cl)=N2)cc1` (stereo not shown) [Example I-707] yielded a logP of 2.29.

`FC(F)(F)Oc1ccc(Oc2ccc(C3CCC(c4sccc4Cl)=N3)cc2)cc1` (stereo not shown) [Example I-710] gave a logP of 4.5.

`C#CCOc1ccc(C2CCC(c3sccc3Cl)=N2)cc1` (stereo not shown) [Example I-720] returned a logP of 1.97.

Still in this data set, the particulars now being: pH 2.3.
As to `FC(F)(F)Oc1ccc(-c2ccc(C3CCC(c4cccs4)=N3)cc2)cc1` (stereo not shown) [Example I-7], the logP was found to be 2.45.

`FC(F)(F)Oc1ccc(-c2ccc(C3CCC(c4ccsc4)=N3)cc2)cc1` (stereo not shown) [Example I-430] returned a logP of 2.44.

Turning to `Fc1ccsc1C1=NC(c2ccc(-c3ccc(OC(F)(F)F)cc3)cc2)CC1` (stereo not shown) [Example I-868, 5-(3-fluorothien-2-yl)-3,4-dihydro-2-[4′-trifluoromethoxy]-[1,1′-biphenyl]-4-yl-2H-pyrrole], the logP stood at 3.18.

For `FC(F)(F)Oc1ccc(Oc2ccc(C3CCC(c4sccc4Cl)=N3)cc2)cc1` (stereo not shown) [Example I-708, 2-(5-(4-Trifluoromethoxyphenoxy-phenyl)-Δ^2-pyrrolin-2-yl)-3-chlorothiophene], the logP was found to be 4.5.

The compound `FC(F)(F)Oc1ccc(-c2ccc(C3CCC(c4sccc4Cl)=N3)cc2)cc1` (stereo not shown) [Example I-195] returned a logP of 4.67.

Turning to `FC(F)(F)Oc1ccc(-c2ccc(C3CCC(c4ncccc4C(F)(F)F)=N3)cc2)cc1` (stereo not shown) [Example I-336], the logP was 5.06.

In the case of `CC(C)(C)OC(=O)NC(CCC(=O)c1sccc1F)c1ccc(-c2ccc(OC(F)(F)F)cc2)cc1` (stereo not shown) [II-868], the logP amounted to 5.05.

The compound `FC(F)(F)Oc1ccc(-c2ccc(C3CCC(c4ccc(Cl)s4)=N3)cc2)cc1` (stereo not shown) [Example I-148] returned a lipophilicity (logP) of 4.21.

Regarding `FC(F)(F)Oc1ccc(-c2ccc(C3CCC(c4ccc(Br)s4)=N3)cc2)cc1` (stereo not shown) [Example I-618], the log partition coefficient (logP) is 4.73.

Assay in another data set: not given
Conditions: not given
The source holds these as a separate data set.
Regarding “1-dimethylamino-5-phenylpyrrolidone-2 [G (I′-678)]”, the “logp (pH=7.5)” value came to 1.52.

A short description of the next data set: physchem. The note with it: pH 7.5.
Compound `c1ccc(C2CCC(c3cccnc3)=N2)cc1` (stereo not shown) [Example I-678] had a log partition coefficient (logP) of 2.01.
